Data as given in patent publication US11053204B2, “Pyrimidinyloxy benzene derivatives as herbicides” (FMC Corporation, priority 2015, dated 2021).

How the values were obtained:
Format in all cases: in vivo
[1] = tested on: Italian ryegrass (Lolium multiflorum); assay: Test A preemergence, visual injury rating
Outline: (§1)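 Visual 0–100 rating (100 = complete control) taken about 10 d post-treatment relative to untreated checks. Preemergence: directed soil spray on sown loam/sand pots. Postemergence: seedlings 2–10 cm, 1–2 leaf. Non-phytotoxic solvent formulation with surfactant.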

[2] = tested on: barnyardgrass (Echinochloa crus-galli); assay: Test A preemergence, visual injury rating; conditions: for Plant response rating, Barnyardgrass: 31 g ai/ha, 0 to 100 scale, 0 no effect, 100 complete control; for Barnyardgrass plant response rating: 125 g ai/ha, 0 to 100 scale (0 no effect, 100 complete control)
Outline: as §1

[3] = tested on: giant foxtail (Setaria faberii); assay: Test A preemergence, visual injury rating
Outline: as §1

kochia (Kochia scoparia) [4] = assay: Test A preemergence, visual injury rating
Outline: as §1

[5] = tested on: pigweed (Amaranthus retroflexus); assay: Test A preemergence, visual injury rating
Outline: as §1

[6] = tested on: ragweed (common ragweed, Ambrosia elatior); assay: Test A preemergence, visual injury rating
Outline: as §1

[7] = tested on: Italian ryegrass (Lolium multiflorum); assay: Test A postemergence, visual injury rating; conditions: 0 to 100 scale, 0 is no effect, 100 is complete control, approximately 10 days
Outline: as §1

[8] = tested on: barnyardgrass (Echinochloa crus-galli); assay: Test A postemergence, visual injury rating; conditions: 0 to 100 scale, 0 is no effect, 100 is complete control, approximately 10 days
Outline: as §1

[9] = tested on: blackgrass (Alopecurus myosuroides); assay: Test A postemergence, visual injury rating; conditions: 0 to 100 scale, 0 is no effect, 100 is complete control, approximately 10 days
Outline: as §1

corn (Zea mays) = assay: Test A postemergence, visual injury rating; conditions: 0 to 100 scale, 0 is no effect, 100 is complete control, approximately 10 days
Outline: as §1

[10] = tested on: galium (catchweed bedstraw, Galium aparine); assay: Test A postemergence, visual injury rating; conditions: 0 to 100 scale, 0 is no effect, 100 is complete control, approximately 10 days
Outline: as §1

[11] = tested on: giant foxtail (Setaria faberii); assay: Test A postemergence, visual injury rating; conditions: 0 to 100 scale, 0 is no effect, 100 is complete control, approximately 10 days
Outline: as §1

kochia (Kochia scoparia) [12] = assay: Test A postemergence, visual injury rating; conditions: 0 to 100 scale, 0 is no effect, 100 is complete control, approximately 10 days
Outline: as §1

[13] = tested on: pigweed (Amaranthus retroflexus); assay: Test A postemergence, visual injury rating; conditions: 0 to 100 scale, 0 is no effect, 100 is complete control, approximately 10 days
Outline: as §1

[14] = tested on: ragweed (common ragweed, Ambrosia elatior); assay: Test A postemergence, visual injury rating; conditions: 0 to 100 scale, 0 is no effect, 100 is complete control, approximately 10 days
Outline: as §1

[15] = tested on: wheat (Triticum aestivum); assay: Test A postemergence, visual injury rating; conditions: 0 to 100 scale, 0 is no effect, 100 is complete control, approximately 10 days
Outline: as §1

[16] = tested on: barnyardgrass (Echinochloa crus-galli); assay: Test B flooded paddy test, plant response rating; conditions: 250 g ai/ha; Flood; scale of 0 to 100 where 0 is no effect and 100 is complete control; 13 to 15 days
Outline: (§2)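 Greenhouse pots flooded to 3 cm above soil at time of treatment received compound via the water, which stayed at that level.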

[17] = tested on: ducksalad (Heteranthera limosa); assay: Test B flooded paddy test, plant response rating; conditions: 250 g ai/ha; Flood; scale of 0 to 100 where 0 is no effect and 100 is complete control; 13 to 15 days
Outline: as §2

rice (Oryza sativa) = assay: Test B flooded paddy test, plant response rating; conditions: 250 g ai/ha; Flood; scale of 0 to 100 where 0 is no effect and 100 is complete control; 13 to 15 days
Outline: as §2

[18] = tested on: sedge, umbrella (small-flower umbrella sedge, Cyperus difformis); assay: Test B flooded paddy test, plant response rating; conditions: 250 g ai/ha; Flood; scale of 0 to 100 where 0 is no effect and 100 is complete control; 13 to 15 days
Outline: as §2

[19] = 31 g ai/ha, 0 to 100 scale, 0 no effect, 100 complete control
[20] = 125 g ai/ha, 0 to 100 scale (0 no effect, 100 complete control)

Structure (SMILES) | Plant response rating, Ryegrass, Italian [1, 19] | Plant response rating, Ryegrass, Italian [1, 20] | Plant response rating, Barnyardgrass [2] | Barnyardgrass plant response rating [2] | Plant response rating, Foxtail, Giant [3, 19] | Plant response rating, Foxtail, Giant [3, 20] | Plant response rating, Kochia (kochia (Kochia scoparia) [4]; [19]) | Plant response rating, Kochia (kochia (Kochia scoparia) [4]; [20]) | Plant response rating, Pigweed [5, 19] | Plant response rating, Pigweed [5, 20] | Plant response rating, Ragweed [6, 19] | Plant response rating, Ragweed [6, 20] | Ryegrass, Italian plant response rating ([7]; 31 g ai/ha) | Ryegrass, Italian plant response rating ([7]; 125 g ai/ha) | Barnyardgrass plant response rating ([8]; 31 g ai/ha) | Barnyardgrass plant response rating ([8]; 125 g ai/ha) | Blackgrass plant response rating ([9]; 31 g ai/ha) | Blackgrass plant response rating ([9]; 125 g ai/ha) | Corn plant response rating (corn (Zea mays); 31 g ai/ha) | Corn plant response rating (corn (Zea mays); 125 g ai/ha) | other results
CCCCOC(=O)c1c(Br)cccc1Oc1ncc(Cl)cn1 [Compound 100] | 0 | 0 | 40 | 100 | 50 | 100 | 0 | 0 | 0 | 60 | 0 | 0 | 0 | 20 | 10 | 50 | 0 | 40 | 10 | 10 | Galium plant response rating ([10]; 31 g ai/ha): 20; Galium plant response rating ([10]; 125 g ai/ha): 70; Foxtail, Giant plant response rating ([11]; 31 g ai/ha): 20; Foxtail, Giant plant response rating ([11]; 125 g ai/ha): 70; Kochia plant response rating (kochia (Kochia scoparia) [12]; 31 g ai/ha): 60; Kochia plant response rating (kochia (Kochia scoparia) [12]; 125 g ai/ha): 80; Pigweed plant response rating ([13]; 31 g ai/ha): 30; Pigweed plant response rating ([13]; 125 g ai/ha): 70; Ragweed plant response rating ([14]; 31 g ai/ha): 0; Ragweed plant response rating ([14]; 125 g ai/ha): 0; Wheat plant response rating ([15]; 31 g ai/ha): 0; Wheat plant response rating ([15]; 125 g ai/ha): 0; Plant response rating, Barnyardgrass [16]: 40; Plant response rating, Ducksalad [17]: 90; Plant response rating, Rice (rice (Oryza sativa)): 0; Plant response rating, Sedge, Umbrella [18]: 70
CCCCCOC(=O)c1c(Br)cccc1Oc1ncc(Cl)cn1 [Compound 101] | 0 | 0 | 0 | 10 | 0 | 40 | 0 | 0 | 0 | 0 | 0 | 0 | 0 | 10 | 10 | 20 | 0 | 0 | 0 | 0 | Galium plant response rating ([10]; 31 g ai/ha): 10; Galium plant response rating ([10]; 125 g ai/ha): 40; Foxtail, Giant plant response rating ([11]; 31 g ai/ha): 0; Foxtail, Giant plant response rating ([11]; 125 g ai/ha): 20; Kochia plant response rating (kochia (Kochia scoparia) [12]; 31 g ai/ha): 0; Kochia plant response rating (kochia (Kochia scoparia) [12]; 125 g ai/ha): 20; Pigweed plant response rating ([13]; 31 g ai/ha): 20; Pigweed plant response rating ([13]; 125 g ai/ha): 60; Ragweed plant response rating ([14]; 31 g ai/ha): 0; Ragweed plant response rating ([14]; 125 g ai/ha): 0; Wheat plant response rating ([15]; 31 g ai/ha): 0; Wheat plant response rating ([15]; 125 g ai/ha): 0; Plant response rating, Barnyardgrass [16]: 0; Plant response rating, Ducksalad [17]: 0; Plant response rating, Rice (rice (Oryza sativa)): 0; Plant response rating, Sedge, Umbrella [18]: 0
O=C(OCC(F)(F)C(F)F)c1c(Br)cccc1Oc1ncc(Cl)cn1 [Compound 103] | 0 | 0 | 0 | 50 | 10 | 60 | 0 | 70 | 40 | 100 | 0 | 0 | 0 | 0 | 0 | 30 | 0 | 10 | 20 | 20 | Galium plant response rating ([10]; 31 g ai/ha): 70; Galium plant response rating ([10]; 125 g ai/ha): 100; Foxtail, Giant plant response rating ([11]; 31 g ai/ha): 10; Foxtail, Giant plant response rating ([11]; 125 g ai/ha): 70; Kochia plant response rating (kochia (Kochia scoparia) [12]; 31 g ai/ha): 70; Kochia plant response rating (kochia (Kochia scoparia) [12]; 125 g ai/ha): 100; Pigweed plant response rating ([13]; 31 g ai/ha): 90; Pigweed plant response rating ([13]; 125 g ai/ha): 100; Ragweed plant response rating ([14]; 31 g ai/ha): 0; Ragweed plant response rating ([14]; 125 g ai/ha): 0; Wheat plant response rating ([15]; 31 g ai/ha): 0; Wheat plant response rating ([15]; 125 g ai/ha): 0; Plant response rating, Barnyardgrass [16]: 0; Plant response rating, Ducksalad [17]: 95; Plant response rating, Rice (rice (Oryza sativa)): 20; Plant response rating, Sedge, Umbrella [18]: 95
CC(=NOC(C)C)c1c(Cl)cccc1Oc1ncc(Cl)cn1 [Compound 104] | 0 | 0 | 0 | 30 | 0 | 40 | 0 | 0 | 0 | 40 | 0 | 0 | 0 | 0 | 0 | 0 | 0 | 20 | 0 | 10 | Galium plant response rating ([10]; 31 g ai/ha): 10; Galium plant response rating ([10]; 125 g ai/ha): 30; Foxtail, Giant plant response rating ([11]; 31 g ai/ha): 0; Foxtail, Giant plant response rating ([11]; 125 g ai/ha): 10; Kochia plant response rating (kochia (Kochia scoparia) [12]; 31 g ai/ha): 0; Kochia plant response rating (kochia (Kochia scoparia) [12]; 125 g ai/ha): 10; Pigweed plant response rating ([13]; 31 g ai/ha): 10; Pigweed plant response rating ([13]; 125 g ai/ha): 40; Ragweed plant response rating ([14]; 31 g ai/ha): 0; Ragweed plant response rating ([14]; 125 g ai/ha): 0; Wheat plant response rating ([15]; 31 g ai/ha): 0; Wheat plant response rating ([15]; 125 g ai/ha): 0; Plant response rating, Barnyardgrass [16]: 0; Plant response rating, Ducksalad [17]: 75; Plant response rating, Rice (rice (Oryza sativa)): 0; Plant response rating, Sedge, Umbrella [18]: 75
CC(=NOC(C)C)c1c(Br)cccc1Oc1ncc(Cl)cn1 [Compound 105] | 0 | 0 | 0 | 30 | 0 | 20 | 0 | 0 | 0 | 20 | 0 | 0 | 0 | 0 | 0 | 0 | 0 | 10 | 0 | 0 | Galium plant response rating ([10]; 31 g ai/ha): 10; Galium plant response rating ([10]; 125 g ai/ha): 20; Foxtail, Giant plant response rating ([11]; 31 g ai/ha): 0; Foxtail, Giant plant response rating ([11]; 125 g ai/ha): 0; Kochia plant response rating (kochia (Kochia scoparia) [12]; 31 g ai/ha): 0; Kochia plant response rating (kochia (Kochia scoparia) [12]; 125 g ai/ha): 10; Pigweed plant response rating ([13]; 31 g ai/ha): 10; Pigweed plant response rating ([13]; 125 g ai/ha): 30; Ragweed plant response rating ([14]; 31 g ai/ha): 0; Ragweed plant response rating ([14]; 125 g ai/ha): 0; Wheat plant response rating ([15]; 31 g ai/ha): 0; Wheat plant response rating ([15]; 125 g ai/ha): 0; Plant response rating, Barnyardgrass [16]: 0; Plant response rating, Ducksalad [17]: 40; Plant response rating, Rice (rice (Oryza sativa)): 0; Plant response rating, Sedge, Umbrella [18]: 0
